Data reported in patent EP2605769B1, “BENZOQUINONE DERIVATIVES FOR THE TREATMENT OF MITCHONDRIAL EYE DISEASES” (Santhera Pharmaceuticals (Schweiz) AG, priority 2010, dated 2012).

Columns and labels:
[1] = system: Primary human fibroblasts C4 (GM04545, Coriell); experiment: Lipid peroxidation assay (BODIPY 581/591-C11); assay type: cell-based; conditions: 10 µM test compound, 72 hours
Description: Lipid peroxidation is a well defined mechanism of cellular damage in both animals and plants that occurs during aging and in some disease states. This process proceeds by a free radical chain reaction mechanism. […] If not terminated fast enough, lipid peroxidation damages cellular membranes, affect membrane fluidity and also mitochondrial function. In addition, end products of lipid peroxidation may be mutagenic and carcinogenic. For instance, the reactive end product of lipid peroxidation, malondialdehyde, directly causes DNA damage. Experimental Procedure: […] BODIPY 581/591-C11 can be used to measure antioxidant activity in lipid environments by exploiting its loss of fluorescence upon interaction with peroxyl radicals. […] After that, 0.1 ml freshly prepared dye solution (HBSS, containing BODIPY dye 1:1000 from stock solution) was added and cells were returned to the incubator for 30 min. After 2 brief washes with 0.1 ml warmed PBS fluorescence was measured in 50 µl PBS. Fluorescence for 4 individual areas per well were individually quantified at two wavelengths (Ex1: 490, Em1: 600; Ex2: 490, Em2: 530, bandwith 10nm, 50 flashes, 400Hz frequency, 20 µs integration time).

RGC-5 cells = experiment: Cellular viability of RGC-like cells challenged with rotenone (cellular ATP content); assay type: cell-based; conditions: 1 day-preincubation, 100 µM
Description: Mitochondrial impairment directly influences cellular survival. Especially cells and tissues that display high level of energy consumption, such as neurons are especially vulnerable. Consequently, these cells and tissues are likely to be the most responsive to a strategy that targets mitochondrial function. We addressed this possibility by assessing the viability of the retinal ganglion cell line RGC-5, challenged with the mitochondrial complex I inhibitor rotenone, in the absence or presence of compounds.
Experimental procedure: RGC-5 cells were cultured under ambient conditions (37 °C, 5% CO2, 90% humidity) in DMEM (1g/l glucose; 10% fetal bovine serum (FBS), Penicillin-Streptomycin-Glutamine (PSG)). RGC-5 cells will be seeded in DMEM (1g/l glucose; 2% FBS) into BD Falcon™ cell culture plates. Before rotenone- induced complex I inhibition, the cells were pre-treated with Compound IA or vehicle. For Compound IA co-treatment with rotenone, new compound was added together with rotenone-containing cell culture media. After the rotenone exposure, the media was exchanged and replaced by Hanks' BSS for the 1 day post-incubation. The post-treatment media contained Compound IA or vehicle only. As measure of cell viability, cellular ATP content was analyzed using luminescence from ATP-dependent enzymatic oxidation of luciferin by luciferase. RGC-5 cells were be washed with PBS and lysed in lysis buffer (4 mM EDTA, 0.2% Triton X-100) at room temperature. In 96-well plates, ATP measurement buffer (25 mM HEPES pH 7.25, 300 µM D-luciferin, 5 µg/ml firefly luciferase, 75 µM DTT, 6.25 mM MgCl2, 625 µM EDTA and 1 mg/ml BSA) was combined with lysate to start the reaction. Luminescence was quantified immediately using a multimode plate reader (Tecan M1000, Tecan iControl 1.6 software; Tecan Austria GmbH, Grödig, Austria). Effects on cell viability were defined as the percentage of compound-mediated change in cell viability relative to rotenone-induced reduction in cell viability. Data are presented as mean ± SEM. Paired Student's t-test was used to compare non-normalized data. Statistical significance was set at p≤0.05(*), p≤0.01(**) and p≤0.001(***).

SMILES	Lipid peroxidation [1]	cell viability, compound-mediated change relative to rotenone-induced reduction, mean (Fig. 2) (RGC-5 cells)	cell viability, compound-mediated change relative to rotenone-induced reduction, mean (Fig. 2) (RGC-5 cells; listed as PP)	cell viability, compound-mediated change relative to rotenone-induced reduction, mean (Fig. 2) (RGC-5 cells; listed as propentophilline)
COC1=C(OC)C(=O)C(CCCCCCCCCCO)=C(C)C1=O [Compound ID]	110%	–	–	–
CCCn1cnc2c1c(=O)n(CCCCC(C)=O)c(=O)n2C [propentophylline, reference compound]	–	not significant	2.2%	no significant protective activity
